Values joined by “and” are separate entries in the source; they are usually repeats but may differ in a detail not shown here. Equal values may be shown once.
Assays:
rat osteoblasts = experiment: Single osteoblast sensor: response time to chemical analytes; type: cell-based; conditions: at the concentration printed under each value (EDTA 280 ppm, ethanol 190 ppm, peroxide 25 ppm, pyrethroids 890 ppm), preliminary results
Procedure: The experiments in Example 2 were conducted on mammalian cells, rat osteoblasts and neurons (18 day embryonic Wistar rat) having highly excitable cell membranes. […] A unique response of each cell type to each agent was determined. […] Here, two out of four agents are discussed. Additionally, the response of each cell type to a mixture of the four agents was determined in order to simulate the real time field conditions. The results obtained for neurons are discussed.
(§1) For example, for the experiments described herein, an experimental platform comprising a 5×5 electrode array on a substrate, a silicone chamber, and a measurement system was used. The micrograph of the fabricated electrode array on a substrate is shown in FIG. 1 with a 5×5 platinum electrode array pattern, electrode diameter of 80 μm and with a 200 μm center to center spacing. Two platinum plated leads (6 μm, thick) from each electrode terminated at two separate electrode pads. The dimensions of the electrode pads were 100 μm×120 μm. The electrode array on the substrate was coated with a permeation polyethylamine (PEI) and collagen with a volume of 200 μl (PEI, 1 mg/ml, Collagen 1X, Sigma, St. Louis, Mo.). The electrode array on the substrate with the aqueous coating of the permeation layer was incubated for about 12 hours prior to the experiment at 37 ° C. and 5% CO2.
The cells were separated and positioned over the electrodes by setting up a gradient AC field using an extracellular positioning system, comprising of a pulse generator and micromanipulators. The AC signal from the pulse generator was fed to the electrode pads of the selected electrodes using the micromanipulators. The extracellular recordings from the cells were amplified and recorded on an oscilloscope. […]
Then fast Fourier transformation (FFT) and wavelet transformation (WT) analysis were used to extract important information from the extracellular action potential (AP) for the neurons. […] Quantitative dose response curves and response times were also obtained for the single cell systems.

single neuron [1] = conditions: estimated theoretically, literature; cited from earlier work
single neuron [2] = experiment: Single neuron sensor: extracellular electrical response to chemical analytes (FFT/WT analysis, signature pattern vector); conditions: for Percentage reduction of signal amplitudes from the detection limit to the peak concentration: 5000 ppm to detection limit; for Percentage increase in response time from peak concentration to the sensitivity limits: about 5000 ppm to detection limit; for Response time of a single neuron extracted via WT analysis: at the detection limit; for Detection limit for a single neuron: decrementing concentrations from about 5000 ppm; for Experimentally obtained detection limit (molar): single neuron
Procedure: The experiments in Example 2 were conducted on mammalian cells, rat osteoblasts and neurons (18 day embryonic Wistar rat) having highly excitable cell membranes. […] A unique response of each cell type to each agent was determined. […] Additionally, the response of each cell type to a mixture of the four agents was determined in order to simulate the real time field conditions.
as §1
The cells were separated and positioned over the electrodes by setting up a gradient AC field using an extracellular positioning system, comprising of a pulse generator and micromanipulators. The AC signal from the pulse generator was fed to the electrode pads of the selected electrodes using the micromanipulators. The extracellular recordings from the cells were amplified and recorded on an oscilloscope. The supply and measurement systems are integrated using general-purpose interface bus (GPIB) control and controlled through LabVIEW (National Instruments, Austin, Tex.).
Then fast Fourier transformation (FFT) and wavelet transformation (WT) analysis were used to extract important information from the extracellular action potential (AP) for the neurons. Specific spectrum power vectors (SSPVs) and the relative spectrum power values (RSPVS) were found for osteoblast. Quantitative dose response curves and response times were also obtained for the single cell systems.
Extracellular signals from individual neurons due to the action of a specific chemical analyte may be analyzed further to understand the chemical type and the cellular response relationship. Here, single neuron based sensor's response and its sensitivity is determined by statistical reconstruction and enhancement of the acquired experimental data. Each chemical was characterized by a unique SPV obtained from the integrated processing of the modified extracellular action potential in the frequency domain (FFT) as well as the time domain (WT).
Integrated signal processing yielded an SPV specific to every chemical analyte. The SPV provides unique functional data corresponding to the physiological state of a single neuron due to the action of a particular analyte at a specific concentration. Each SPV comprises of certain frequency states, which are analyte specific and having maximum relative amplitudes that are generated concurrently in the sensing cycle; these correspond to the neuron's modified stable burst rate. Extracellular signal amplitudes greater than about 50 μV are considered to be accurate measures of the cell response due to a specific chemical analyte as the magnitude of signals due to non-specific interactions and noise signals are smaller than this value.

single neuron [3] = conditions: hydrogen peroxide added after ethanol, both at their detection limits
Source text: The detection limits for individual chemicals act as the basis for determining the concentration of the specific chemical analytes used in cascaded sensing. Addition of the first chemical analyte approaching its sensitivity limit results in the acquisition of modified extracellular potential pertaining to the specific chemical analyte. The use of the chemical analyte close to its detection limit leads to the dissipation as well as metabolization of the chemical analyte within a single sensing cycle (180 seconds) that result in the reduction of the chemical analyte concentration below the detection threshold. […] Administration of the second chemical analyte results in a specific modification based on the latter.
The concentrations of the chemicals used were at their detection limits.

| Compound | Response time of osteoblast cells (rat osteoblasts) [sec per] | Lowest single neuron sensitivity, lowest concentration determined by existing methods (single neuron [1]) | Percentage reduction of signal amplitudes from the detection limit to the peak concentration (single neuron [2]; n=15) | Percentage increase in response time from peak concentration to the sensitivity limits (single neuron [2]; n=15) | Response time of a single neuron extracted via WT analysis (single neuron [2]; n=15) | Detection limit for a single neuron (single neuron [2]; n=15) | Percentage reduction of signal amplitude per 1000 ppm (single neuron [2]; n=15) | Experimentally obtained detection limit (molar) (single neuron [2]) | Eigen vectors of the SPV / modified firing frequency (Example 2) (single neuron [2]; control burst rate 626 Hz, unchanged for varying concentrations, n=15) [Hz] | Frequency of firing of the neuron / eigen values of the SPV (description of FIGS. 4-7) (single neuron [2]; low and high frequency modes, hydrogen peroxide within 30 seconds of addition) | High frequency eigen vector after cascaded addition (single neuron [3]) [Hz] |
| --- | --- | --- | --- | --- | --- | --- | --- | --- | --- | --- | --- |
| O=C(O)CN(CCN(CC(=O)O)CC(=O)O)CC(=O)O [EDTA, ethylenediaminetetraacetic acid] | 0.14 | about 15 pM | about 67% | about 1.8% | about 0.27 second | about 180 ppm | about 10.4%±0.11% | about 3.42×10^−13 M |  |  |  |
| CCO [ethanol] | 0.71 | about 25 μM | about 52% | about 1.6% | about 0.21 second | about 9 ppm | about 8.2%±0.12% | about 2.17×10^−12 M | 314 | 315 Hz and 627 Hz and 314 Hz and 626 Hz |  |
| OO [hydrogen peroxide] | 0.42 | about 15 nM | about 38% | about 1.8% | about 0.07 second | about 19 ppm | about 7.8%±0.14% | about 2.94×10^−12 M |  |  | 775 |

From patent US20060188904A1, “Biosensors having single reactant components immobilized over single electrodes and methods of making and using thereof” (The Regents of the University of California, priority 2003, published 2006)
